Inhibition and EC50 data for 21 molecules are collected here from ChEMBL document CHEMBL1136246, “Structure activity studies of a novel cytotoxic benzodiazepine” (Bioorg Med Chem Lett, 2003).

The structures appear in SMILES notation. Where only a bound is given, the exact number is not on record here.

What is called Inhibition is how much of the control response was suppressed. One may read the EC50 as the concentration needed to bring the measured effect to its halfway point. A high value points to weaker potency.

Test [1] concerns Ramos. As to the kind of experiment: Inhibition of Ramos B cells death in the presence of 20 uM methylating phenol (Compound 20). Type of test: functional, Homo sapiens.
Test [2] relates to Ramos. Briefly: Lymphotoxic activity against immortalized Ramos B cells in culture. Type of test: functional, cell-based. The note with it: Homo sapiens.
For test [3], the system named is Ramos. Briefly: Inhibition of Ramos B cells death in the presence of FK506 (1 uM). It counts as functional, Homo sapiens.

Turning to `CN1C(=O)C(Cc2cccc(-c3ccccc3)c2)N=C(c2ccc(O)cc2)c2cc(Cl)ccc21` (stereo unspecified), the results for the Inhibition in the test with Ramos [1] and in the test with Ramos [3] were 81% and 77%, respectively. The EC50 in the test on Ramos [2] came to 4 µM.

Take `Cc1ccc(C)c(CC2N=C(c3ccc(O)cc3)c3cc(Cl)ccc3N(C)C2=O)c1` (stereo unspecified): the Inhibition in the test with Ramos [1] was 23%; in the test with Ramos [3] it was 80%. In the test on Ramos [2], this molecule came in with an EC50 of 7 µM.

Consider `CN1C(=O)C(Cc2ccc(-c3ccccc3)cc2)N=C(c2ccc(O)cc2)c2cc(Cl)ccc21` (stereo unspecified), for which the figures for the Inhibition with Ramos [1] and in the test on Ramos [3] were 69% and 74%, respectively. This molecule had an EC50 in the test on Ramos [2] of 7 µM.

Turning to `CN1C(=O)C(Cc2cccc3ccccc23)N=C(c2ccc(O)cc2)c2cc(Cl)ccc21` (stereo unspecified), the values for the Inhibition in the test with Ramos [1] and in the test with Ramos [3] were 67% and 72%, respectively. Besides, in the test on Ramos [2], the half-maximal effective concentration (EC50) was 5 µM.

For the molecule `CN1C(=O)C(Cc2ccc(F)c(F)c2)N=C(c2ccc(O)cc2)c2cc(Cl)ccc21` (stereo unspecified), the Inhibition in the test on Ramos [1] came out at 0%; in the test with Ramos [3], 59%. Moreover, in the test with Ramos [2], the EC50 was found to be 10 µM.

As for `CN1C(=O)C(Cc2ccc3ccccc3c2)N=C(c2cccc(O)c2)c2cc(Cl)ccc21` (stereo unspecified), the Inhibition with Ramos [1] turned out to be 0%; with Ramos [3], 70%. This molecule showed an EC50 with Ramos [2] of 6 µM.

As to `CN1C(=O)C(Cc2cc3ccccc3cn2)N=C(c2ccc(O)cc2)c2cc(Cl)ccc21` (stereo unspecified), the Inhibition in the test on Ramos [1] turned out to be 0%; in the test on Ramos [3], 42%. The EC50 in the test with Ramos [2] worked out at 10 µM.

Consider `CN1C(=O)C(Cc2ccc3ncccc3c2)N=C(c2ccc(O)cc2)c2cc(Cl)ccc21` (stereo unspecified), for which the Inhibition with Ramos [1] came to 0%; in the test with Ramos [3], 20%. Besides, in the test on Ramos [2], the midpoint of the response, the EC50, lay at 13 µM.

`CN1C(=O)C(Cc2ccc(OC(F)(F)F)cc2)N=C(c2ccc(O)cc2)c2cc(Cl)ccc21` (stereo unspecified): the Inhibition in the test with Ramos [1] is listed as 0%; in the test with Ramos [3], 17%. This molecule also displayed an EC50 with Ramos [2] of 30 µM.

Regarding `CN1C(=O)C(Cc2cccc(O)c2)N=C(c2ccc(O)cc2)c2cc(Cl)ccc21` (stereo unspecified), the Inhibition in the test with Ramos [1] is reported as 20%; in the test on Ramos [3], 14%. In the test on Ramos [2], the concentration giving a half-maximal response (EC50) was determined as 22 µM.

As to `CN1C(=O)C(Cc2ccccc2)N=C(c2ccc(O)cc2)c2cc(Cl)ccc21` (stereo unspecified), the Inhibition in the test with Ramos [1] turned out to be 0%; in the test with Ramos [3], 4%. This molecule had an EC50 in the test with Ramos [2] of 12 µM.

In the case of `CN1C(=O)C(Cc2cnc3ccccc3c2)N=C(c2ccc(O)cc2)c2cc(Cl)ccc21` (stereo unspecified), the Inhibition with Ramos [1] was 4%; with Ramos [3] it was 39%. In the test with Ramos [2], the midpoint of the response, the EC50, lay at 11 µM.

Turning to `CN1C(=O)C(Cc2ccc(C(C)(C)C)cc2)N=C(c2ccc(O)cc2)c2cc(Cl)ccc21` (stereo unspecified), the Inhibition in the test with Ramos [1] is listed as 55%; in the test with Ramos [3], 91%. In the test on Ramos [2], a half-maximal effect (EC50) was put at 3 µM.

Turning to `COc1ccc(C2=NC(Cc3ccc4ccccc4c3)C(=O)N(C)c3ccc(Cl)cc32)cc1` (stereo unspecified), in the test on Ramos [2], the EC50 is more than 80 µM.

For the molecule `CN1C(=O)C(Cc2ccc3ccccc3c2)N=C(c2ccc(Cl)cc2)c2cc(Cl)ccc21` (stereo unspecified), the concentration for a half-maximal effect (EC50) with Ramos [2] is more than 80 µM.

With `Cc1cc(C2=NC(Cc3ccc4ccccc4c3)C(=O)N(C)c3ccc(Cl)cc32)ccc1O` (stereo unspecified), the figures for the Inhibition with Ramos [1] and in the test with Ramos [3] were 87% and 78%, respectively. The same molecule showed an EC50 in the test with Ramos [2] of 3 µM.

Molecule `CN1C(=O)C(Cc2ccc3ccccc3c2)N=C(c2ccc(N=[N+]=[N-])cc2)c2cc(Cl)ccc21` (stereo unspecified) came in with a half-maximal effective concentration (EC50) in the test on Ramos [2] of more than 80 µM.

`Cc1ccc(CC2N=C(c3ccc(O)cc3)c3cc(Cl)ccc3N(C)C2=O)cc1C` (stereo unspecified): the Inhibition stood at 29% in the test on Ramos [1] and 78% in the test with Ramos [3]. The concentration for a half-maximal effect (EC50) in the test with Ramos [2] came to 7 µM.

`CN1C(=O)CN=C(c2ccccc2)c2cc(Cl)ccc21` [DIAZEPAM]: in the test on Ramos [2], the EC50 was more than 80 µM.

In the test on Ramos [2], `CCC(C)N(C)C(=O)c1cc2ccccc2c(-c2ccccc2Cl)n1` (stereo unspecified) [PK-11195] yielded an EC50 of more than 80 µM.

Turning to `CN1C(=O)CN=C(c2ccc(Cl)cc2)c2cc(Cl)ccc21` [RO-54864], the half-maximal effective concentration (EC50) in the test with Ramos [2] is more than 80 µM.
